Where two headings read alike, the source gives them in different places.

The format of data set [1] is in vivo, mice. Particulars: 50 mg/kg. The source says:
The following table illustrates utility of the compounds of the present invention as weight control agents.
Table of Weight Control Observed
With 1,5-bis(thiophenyl)-2-nitrobenzene
Animal (mg/kg) (grams) Date

Data set [2] can be described thus: Toxicity, survival time after im injection in DMSO. The class given is in vivo, mice. The source says:
The following represents initial test observations for one of the above identified compounds.
Table of Toxicity Data for
1,5-bis(thiophenyl)-2-nitrobenzene* (2e)
Animal** (mg/kg im DMSO) Time (Days)
**All mice were tail-coded.
***Sacrificed at the end of 14 days.

Data set [3] can be described thus: Barbiturate induced sleeping time potentiation. The class given is in vivo. Particulars: in all cases. On the procedure: (§1) Further, the action of the drug at 200 mg/kg in the spontaneous motor activity test tends to reverse with greater activity observed (47%). An additional set of data was also acquired for this compound which was barbiturate induced sleeping time potentiation. […] Thus, compounds that may be prepared in accordance with Equation 3 above are: […]

Data set [4] can be described thus: Effect on body temp., heart rate, and respiration in rats. The class given is in vivo. Particulars: 100 mg/kg i.p. On the procedure: TABLE OF EFFECT OF 7-CHLORO-1-AZAPHENOXATHIIN 100 MG/KG I.P. ON
BODY TEMP., HEART RATE, AND RESPIRATION IN RATS

Data set [5] in a line: LD50 studies of 7-chloro-1-azaphenoxathiin. The class given is in vivo. The source says:
Table of LD50 Studies of 7-chloro-1-azaphenoxathiin
Test Animal Survival Time
Group* Dose (mg/kg) (Days)
*All animals were tail-coded
**LD50; dependent on the toleration of the animal for this drug

Data set [6] is described as follows: Hexobarbital sleeping time potentiation. The class given is in vivo. Particulars: control 58.5. The procedure: as §1
(§2) Table of Barbiturate Sleeping Time Potentiation With
(§3) 7-Chloro-1-Azaphenoxathiin
Hexobarbital Sleeping Time Potentiation
(§4) Dose (mg/kg) Mean (min) SE (min)

Data set [7] in a line: Spontaneous and forced motor activity tests. The class given is in vivo. The procedure:
as §1

A short description of data set [8]: Barbital sleeping time potentiation. The class given is in vivo. Particulars: control 125.4. The procedure: as §1, §2, §3, §4
Barbital Sleeping Time Potentiation

The nature of data set [9]: Preliminary toxicity testing of 7-nitro-1-azaphenoxathiin.
Procedure: These tests were run simultaneously using chloropromazine as a control. This compound was tested at doses of 50, 100 and 200 mg/kg.
Data set [10] can be described thus: Strychnine anticonvulsant study. The class given is in vivo. Particulars: for Average Onset Time: saline control 3.10. The source says: TABLE OF STRYCHNINE ANTICONVULSANT STUDY
WITH 7-NITRO-1-AZAPHENOXATHIIN
Test Group Time (min) Deviation Error
______________________________________

As for `O=[N+]([O-])c1ccc(Sc2ccccc2)cc1Sc1ccccc1` [1,5-bis(thiophenyl)-2-nitrobenzene], the Weight turned out to be 16.0 grams in [1] (animal #5, 7/16/77); 15.8 grams in [1] (animal #5, 7/17/77); 16.0 grams in data set [1] (animal #5, 7/18/77); 16.0 grams in data set [1] (animal #5, 7/19/77); 16.0 grams in [1] (animal #5, 7/20/77); 16.0 grams in data set [1] (animal #5, 7/21/77). Also, the “death resulting from decreased CNS activity” value in data set [2] was “death at higher doses”.
For the compound `Clc1ccc2c(c1)Oc1cccnc1S2` [7-chloro-1-azaphenoxathiin], the “barbiturate induced sleeping times” value in data set [3] is reported as “prolongation of barbiturate induced sleeping times”. Moreover, the H.R. in [4] (time 0, N 5) is 331.2 Beats/Min; in data set [4] (time 30, N 4), 314.0 Beats/Min; in data set [4] (time 60, N 4), 288.0 Beats/Min; in [4] (time 120, N 4), 273.0 Beats/Min; in data set [4] (time 180, N 4) it was 270.0 Beats/Min; in data set [4] (time 240, N 4) it was 289.0 Beats/Min. In addition, the Resp in [4] (time 0, N 5) is listed as 120.8 Breath/Min; in [4] (time 30, N 4), 101.2 Breath/Min; in data set [4] (time 60, N 4), 79.7 Breath/Min; in [4] (time 120, N 4) it was 70.0 Breath/Min; in data set [4] (time 180, N 4), 78.2 Breath/Min; in data set [4] (time 240, N 4) it was 82.3 Breath/Min. The Temp in data set [4] (time 0, N 5) was found to be 38.5 °C; in data set [4] (time 30, N 4), 37.6 °C; in data set [4] (time 60, N 4), 36.8 °C; in [4] (time 120, N 4), 35.8 °C; in [4] (time 180, N 4), 35.4 °C; in [4] (time 240, N 4), 35.0 °C. For the same compound, the “H.R. Δ From Veh” value in data set [4] (time 30, N 4) is reported as -34.0 Beats/Min; in data set [4] (time 60, N 4) it was -36.0 Beats/Min; in [4] (time 120, N 4) it was -55.0 Beats/Min; in data set [4] (time 180, N 4) it was -66.0 Beats/Min; in data set [4] (time 240, N 4), -51.0 Beats/Min. For the same compound, the “Resp Δ From Veh” value in data set [4] (time 30, N 4) is reported as -33.1 Breath/Min; in data set [4] (time 60, N 4), -65.9 Breath/Min; in data set [4] (time 120, N 4), -49.2 Breath/Min; in data set [4] (time 180, N 4), -41.8 Breath/Min; in [4] (time 240, N 4) it was -33.0 Breath/Min. In addition, the “Temp Δ From Veh” value in data set [4] (time 30, N 4) is -0.4 °C; in [4] (time 60, N 4) it was -2.4 °C; in data set [4] (time 120, N 4), -2.4 °C; in [4] (time 180, N 4), -3.4 °C; in [4] (time 240, N 4), -3.6 °C. Besides, the “Survival Time” value in [5] (50 mg/kg, group 1, 14-day test period) is 14 days; in [5] (100 mg/kg, group 2, 14-day test period), 14 days; in data set [5] (250 mg/kg, group 3, 14-day test period), 14 days; in data set [5] (500 mg/kg, group 4, 14-day test period), 14 days; in [5] (750 mg/kg, group 5, LD50, dependent on the toleration of the animal) it was 0 to 14 days; in [5] (1,000 mg/kg, group 6), 0 days. Besides, the “Survival Time” value in data set [5] (1,500 mg/kg, group 7) is 0 days. The “survival of the 14-day test period” value in [5] (750 mg/kg) is listed as “several lived the 14-day test period”. Moreover, in data set [5] (in vivo), the LD50 was ~750 mg/kg. Further, the tolerability result in data set [5] (test animals) is given as “generally well tolerated”. Besides, the “Hexobarbital Sleeping Time, Mean” value was found to be 79.8 min in data set [6] (25 mg/kg); 81.9 min in data set [6] (50 mg/kg, p<0.05); 104.4 min in data set [6] (100 mg/kg, p<0.05). For the same compound, the “greater activity observed in the spontaneous motor activity test” value in data set [7] (200 mg/kg, action tends to reverse) amounted to 47%. Also, the “potency in both spontaneous and forced motor activity tests” value in data set [7] (compared with 7-nitro-1-azaphenoxathiin) is recorded as “somewhat more potent than the former”. Besides, the results for the “Barbital Sleeping Time, Mean” value in [8] (25 mg/kg), in data set [8] (50 mg/kg) and in [8] (100 mg/kg) were 120.6 min, 155.1 min and 179.5 min, respectively.
Regarding `O=[N+]([O-])c1ccc2c(c1)Oc1cccnc1S2` [7-nitro-1-azaphenoxathiin], in data set [9], the toxicity result is “surprisingly low toxicity”. Further, the “activity as an anticonvulsant” value in data set [10] is listed as “essentially no activity”. The “Average Onset Time” value was 3.21 min in data set [10] (50 mg/kg), 3.06 min in data set [10] (100 mg/kg) and 3.06 min in [10] (200 mg/kg).

As usually defined, the LD50 is the dose at which mortality reaches 50%.

These data come from patent publication US4119629A, “Certain azaphenoxathiin compounds” (priority 1977, dated 1978).
